This is an account of results in patent EP0293900B1, “Phenolic thioethers, sulfoxides, and disulfides as inhibitors of 5-lipoxygenase” (G.D. Searle & Co., priority 1987, dated 1988).

For the test, the target named is T1, 5-lipoxygenase (Rattus norvegicus, UniProt P12527).
T1 construct: The 100,000 x g supernatant fraction of Rat Basophilic Leukemia Cell Homogenate (RBL-1) serves as a 5-lipoxygenase enzyme source; endogenous in cells; host or cells: RBL-1 (rat basophilic leukemia) cells, 100,000 x g supernatant of the homogenate
T1 sequence (P12527 1-673): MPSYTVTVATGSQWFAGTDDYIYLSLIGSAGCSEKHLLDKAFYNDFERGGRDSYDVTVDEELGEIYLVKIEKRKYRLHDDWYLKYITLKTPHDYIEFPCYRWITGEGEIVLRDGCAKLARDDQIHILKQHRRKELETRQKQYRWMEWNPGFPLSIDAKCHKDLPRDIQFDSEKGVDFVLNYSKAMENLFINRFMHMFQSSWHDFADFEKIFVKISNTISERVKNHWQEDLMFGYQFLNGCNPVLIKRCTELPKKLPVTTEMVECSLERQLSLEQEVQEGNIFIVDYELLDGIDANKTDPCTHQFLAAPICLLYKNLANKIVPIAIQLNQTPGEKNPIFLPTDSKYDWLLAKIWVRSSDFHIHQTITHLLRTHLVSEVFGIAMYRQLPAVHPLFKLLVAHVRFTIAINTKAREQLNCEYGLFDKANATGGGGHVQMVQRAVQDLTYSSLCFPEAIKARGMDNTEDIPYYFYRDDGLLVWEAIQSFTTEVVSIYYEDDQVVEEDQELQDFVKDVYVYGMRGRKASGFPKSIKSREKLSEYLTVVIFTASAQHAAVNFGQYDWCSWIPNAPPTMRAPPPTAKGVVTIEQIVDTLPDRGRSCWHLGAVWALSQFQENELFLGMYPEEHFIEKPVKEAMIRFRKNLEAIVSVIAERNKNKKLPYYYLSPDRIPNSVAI
Kind of test: Inhibition of 5-lipoxygenase, in vitro (5-HETE synthesis from [1-14C]-arachidonic acid, RBL-1 supernatant). The note with it: 100,000 x g supernatant of Rat Basophilic Leukemia Cell Homogenate (RBL-1), active = 30% or more inhibition of 5-HETE synthesis, initial screening 1 x 10⁻⁴M; for pIC50: read-out: 5-Lipoxygenase Inhibition, in vitro. IC₅₀. The class given is biochemical. The procedure: The compounds of the invention are evaluated with respect to 5-lipoxygenase inhibition according to the following assay procedure.
Inhibition of 5-lipoxygenase, in vitro: anti-inflammatory, anti-allergy activities.
The 100,000 x g supernatant fraction of Rat Basophilic Leukemia Cell Homogenate (RBL-1) serves as a 5-lipoxygenase enzyme source. The enzyme is incubated with [1-¹⁴C)-arachidonic acid and Ca⁺⁺ in the presence and absence of test compound. The product of 5-lipoxygenase, 5-hydroxyeicosatetraenoic acid (5-HETE), is separated by thin-layer chromatography and measured by radioactivity. A compound inhibiting 5-HETE synthesis by 30% or more is considered active at that concentration. Initial screening doses are 1 x 10⁻⁴M.

pIC50: −log10 of the molar value.

For `COC(=O)CSSc1cc(C(C)(C)C)c(O)c(C(C)(C)C)c1` [Example 14, Methyl [[3,5-bis(1,1-dimethylethyl)-4-hydroxyphenyl]dithio]acetate], the pIC50 was 6.40.
The same measure, in the same setting: next, `CCCC(Sc1cc(C(C)(C)C)c(O)c(C(C)(C)C)c1)C(=O)O` (centres unmarked) [Example 8]: 5.18; `CCOC(=O)C=CCCSc1cc(C(C)(C)C)c(O)c(C(C)(C)C)c1` [Example 13, Ethyl 5-[[3,5-bis(1,1-dimethylethyl)-4-hydroxyphenyl]thio]-2-pentenoate]: 6.59.
On the same count and under the same terms, to `CC(C)(C)c1cc(SCCC(=O)O)cc(C(C)(C)C)c1O` [Example 12, 3-[[3,5-bis(1,1-dimethylethyl)-4-hydroxyphenyl]thio]propanic acid] belongs 5.47; to `CCOC(=O)C(C)Sc1cc(C(C)(C)C)c(O)c(C(C)(C)C)c1` (centres unmarked) [Example 5, Ethyl 2-[[3,5-bis(1,1-dimethylethyl)-4-hydroxyphenyl]thio]propanoate], 6.41.
On to `COC(=O)CCS(=O)(=O)c1cc(C(C)(C)C)c(O)c(C(C)(C)C)c1` [Example 11, Methyl 3-[[3,5-bis(1,1 dimethylethyl)-4-hydroxyphenyl]sulfonyl]propanoate], for which the “5-Lipoxygenase Inhibition, in vitro. IC₅₀” value is reported as “Inactive”.
Turning to `CCCC(Sc1cc(C(C)(C)C)c(O)c(C(C)(C)C)c1)C(=O)OCC` (centres unmarked) [Example 7, Ethyl 2-[[3,5-bis(1,1-dimethylethyl)-4-hydroxyphenyl]thio]pentanoate], the pIC50 was 5.89.
In the case of `CC(C)(C)c1cc(SCCCC(=O)O)cc(C(C)(C)C)c1O` [Example 3, 4-[[3,5-bis(1,1-dimethylethyl)-4-hydroxyphenyl]thio] butanoic acid], the pIC50 was 6.00.
Still for that read-out and setting: next, `CC(C)(C)c1cc(SCCCCC(=O)O)cc(C(C)(C)C)c1O` [Example 4, 5-[[3,5-bis(1,1-dimethylethyl)-4-hydroxyphenyl]thio]pentanoic acid]: 5.96.
Same read-out and setting: next, `COC(=O)CC[S+]([O-])c1cc(C(C)(C)C)c(O)c(C(C)(C)C)c1` (centres unmarked) [Example 10, Methyl 3-[[3,5-bis(1,1-dimethylethyl)-4-hydroxyphenyl]sulfinyl]propanoate]: 4.78; `COC(=O)CCSc1cc(C(C)(C)C)c(O)c(C(C)(C)C)c1` [Example 9, Methyl 3-[[3,5-bis(1,1-dimethylethyl)-4-hydroxyphenol]thio]propanoate]: 6.42.
